{"source": "patent EP3375430A1", "about": "“FRAGRANCE COMPOSITIONS” (Takasago International Corporation, priority 2017, dated 2018)", "key": {"[1]": {"test": "Headspace concentration of fragrance ingredients over blotter (thermal desorption GC-MS)", "assay_type": "physicochemical", "settings": "fragrance TAK; after 1 hour; both control EdT1 and composition C1; Figure 2", "how_it_was_run": "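Fragrance (100µL) applied to a 10 cm perfumers' blotter held on a 32°C hot plate, equilibrated 5 min; headspace drawn through Tenax TA tubes at 17mL/min until 280mL collected, repeated at later sampling times. Tubes thermally desorbed splitless onto HP-5MS column, GC-MS detection, mass range 35 to 350.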"}, "[2]": {"test": "Amount of fragrance ingredients retained on paper blotter after evaporation (ethanol extraction, GC-MS)", "assay_type": "physicochemical", "how_it_was_run": "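100 µL of fragrance formulation applied to paper blotters kept at 32°C open to air; at each time three blotters extracted 1 h in ethanol with methyl decanoate internal standard and analysed by GC-MS (HP-5MS, 50–280°C). Amounts averaged over triplicates and expressed as percent of time-zero level.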"}}, "data": [{"smiles": "C=C(C)[C@H]1CC=C(C)CC1", "note": "[Limonene]", "values": [{"measurement": "headspace presence of ingredient", "setting": "[1]", "result": "lost"}, {"measurement": "amount of fragrance ingredient retained on blotter (percentage of the initial amount)", "setting": "[2]; Table 3, fragrance TAK in C1, 15 min, 32°C", "result": 18, "unit": "%"}, {"measurement": "amount of fragrance ingredient retained on blotter (percentage of the initial amount)", "setting": "[2]; Table 3, fragrance TAK in C1, 60 min, 32°C", "result": 1, "unit": "%"}, {"measurement": "amount of fragrance ingredient retained on blotter (percentage of the initial amount)", "setting": "[2]; Table 3, fragrance TAK in C1, 120 min, 32°C", "result": 1, "unit": "%"}, {"measurement": "amount of fragrance ingredient retained on blotter (percentage of the initial amount)", "setting": "[2]; Table 3, fragrance TAK in C1, 240 min, 32°C", "result": 1, "unit": "%"}, {"measurement": "amount of fragrance ingredient retained on blotter (percentage of the initial amount)", "setting": "[2]; Table 3, fragrance TAK in C1, 480 min, 32°C", "result": "<1", "unit": "%"}, {"measurement": "amount of fragrance ingredient retained on blotter (percentage of the initial amount)", "setting": "[2]; Table 3, fragrance TAK in EdT1, 15 min, 32°C", "result": 1, "unit": "%"}, {"measurement": "amount of fragrance ingredient retained on blotter (percentage of the initial amount)", "setting": "[2]; Table 3, fragrance TAK in EdT1, 60 min, 32°C", "result": "<1", "unit": "%"}, {"measurement": "amount of fragrance ingredient retained on blotter (percentage of the initial amount)", "setting": "[2]; Table 3, fragrance TAK in EdT1, 120 min, 32°C", "result": "<1", "unit": "%"}, {"measurement": "amount of fragrance ingredient retained on blotter (percentage of the initial amount)", "setting": "[2]; Table 3, fragrance TAK in EdT1, 240 min, 32°C", "result": "<1", "unit": "%"}, {"measurement": "amount of fragrance ingredient retained on blotter (percentage of the initial amount)", "setting": "[2]; Table 3, fragrance TAK in EdT1, 480 min, 32°C", "result": "<1", "unit": "%"}, {"measurement": "amount of fragrance ingredient retained on blotter (percentage of the initial amount)", "setting": "[2]; Table 3, fragrance TAK in EdT1 or C1, T0, set at 100% (normalisation)", "result": 100, "unit": "%"}, {"measurement": "amount of fragrance ingredient retained on blotter (percentage of the initial amount)", "setting": "[2]; Table 4, fragrance TAK in C2, 15 min, 32°C", "result": 29, "unit": "%"}, {"measurement": "amount of fragrance ingredient retained on blotter (percentage of the initial amount)", "setting": "[2]; Table 4, fragrance TAK in C2, 480 min, 32°C", "result": "<1", "unit": "%"}, {"measurement": "amount of fragrance ingredient retained on blotter (percentage of the initial amount)", "setting": "[2]; Table 4, fragrance TAK in EdT1, 15 min, 32°C", "result": 2, "unit": "%"}, {"measurement": "amount of fragrance ingredient retained on blotter (percentage of the initial amount)", "setting": "[2]; Table 4, fragrance TAK in EdT1, 480 min, 32°C", "result": "<1", "unit": "%"}, {"measurement": "amount of fragrance ingredient retained on blotter (percentage of the initial amount)", "setting": "[2]; Table 4, fragrance TAK in EdT1 or C2, T0, set at 100% (normalisation)", "result": 100, "unit": "%"}, {"measurement": "amount of fragrance ingredient retained on blotter (percentage of the initial amount)", "setting": "[2]; Table 5, fragrance TAK in C3, 15 min, 32°C", "result": 19, "unit": "%"}, {"measurement": "amount of fragrance ingredient retained on blotter (percentage of the initial amount)", "setting": "[2]; Table 5, fragrance TAK in C3, 60 min, 32°C", "result": "<1", "unit": "%"}, {"measurement": "amount of fragrance ingredient retained on blotter (percentage of the initial amount)", "setting": "[2]; Table 5, fragrance TAK in C3, 120 min, 32°C", "result": "<1", "unit": "%"}, {"measurement": "amount of fragrance ingredient retained on blotter (percentage of the initial amount)", "setting": "[2]; Table 5, fragrance TAK in C3, 240 min, 32°C", "result": "<1", "unit": "%"}, {"measurement": "amount of fragrance ingredient retained on blotter (percentage of the initial amount)", "setting": "[2]; Table 5, fragrance TAK in C3, 480 min, 32°C", "result": "<1", "unit": "%"}, {"measurement": "amount of fragrance ingredient retained on blotter (percentage of the initial amount)", "setting": "[2]; Table 5, fragrance TAK in C3, 1440 min, 32°C", "result": "<1", "unit": "%"}, {"measurement": "amount of fragrance ingredient retained on blotter (percentage of the initial amount)", "setting": "[2]; Table 5, fragrance TAK in EdT1, 15 min, 32°C", "result": 1, "unit": "%"}, {"measurement": "amount of fragrance ingredient retained on blotter (percentage of the initial amount)", "setting": "[2]; Table 5, fragrance TAK in EdT1, 60 min, 32°C", "result": "<1", "unit": "%"}, {"measurement": "amount of fragrance ingredient retained on blotter (percentage of the initial amount)", "setting": "[2]; Table 5, fragrance TAK in EdT1, 120 min, 32°C", "result": "<1", "unit": "%"}, {"measurement": "amount of fragrance ingredient retained on blotter (percentage of the initial amount)", "setting": "[2]; Table 5, fragrance TAK in EdT1, 240 min, 32°C", "result": "<1", "unit": "%"}, {"measurement": "amount of fragrance ingredient retained on blotter (percentage of the initial amount)", "setting": "[2]; Table 5, fragrance TAK in EdT1, 480 min, 32°C", "result": "<1", "unit": "%"}, {"measurement": "amount of fragrance ingredient retained on blotter (percentage of the initial amount)", "setting": "[2]; Table 5, fragrance TAK in EdT1, 1440 min, 32°C", "result": "<1", "unit": "%"}, {"measurement": "amount of fragrance ingredient retained on blotter (percentage of the initial amount)", "setting": "[2]; Table 5, fragrance TAK in EdT1 or C3, T0, set at 100% (normalisation)", "result": 100, "unit": "%"}, {"measurement": "amount of fragrance ingredient retained on blotter (percentage of the initial amount)", "setting": "[2]; Table 6, fragrance TAK in C4, 15 min, 32°C", "result": 17, "unit": "%"}, {"measurement": "amount of fragrance ingredient retained on blotter (percentage of the initial amount)", "setting": "[2]; Table 6, fragrance TAK in C4, 60 min, 32°C", "result": "<1", "unit": "%"}, {"measurement": "amount of fragrance ingredient retained on blotter (percentage of the initial amount)", "setting": "[2]; Table 6, fragrance TAK in C4, 120 min, 32°C", "result": 1, "unit": "%"}, {"measurement": "amount of fragrance ingredient retained on blotter (percentage of the initial amount)", "setting": "[2]; Table 6, fragrance TAK in C4, 240 min, 32°C", "result": 1, "unit": "%"}, {"measurement": "amount of fragrance ingredient retained on blotter (percentage of the initial amount)", "setting": "[2]; Table 6, fragrance TAK in C4, 480 min, 32°C", "result": 1, "unit": "%"}, {"measurement": "amount of fragrance ingredient retained on blotter (percentage of the initial amount)", "setting": "[2]; Table 6, fragrance TAK in EdT1, 15 min, 32°C", "result": 1, "unit": "%"}, {"measurement": "amount of fragrance ingredient retained on blotter (percentage of the initial amount)", "setting": "[2]; Table 6, fragrance TAK in EdT1, 60 min, 32°C", "result": "<1", "unit": "%"}, {"measurement": "amount of fragrance ingredient retained on blotter (percentage of the initial amount)", "setting": "[2]; Table 6, fragrance TAK in EdT1, 120 min, 32°C", "result": "<1", "unit": "%"}, {"measurement": "amount of fragrance ingredient retained on blotter (percentage of the initial amount)", "setting": "[2]; Table 6, fragrance TAK in EdT1, 240 min, 32°C", "result": "<1", "unit": "%"}, {"measurement": "amount of fragrance ingredient retained on blotter (percentage of the initial amount)", "setting": "[2]; Table 6, fragrance TAK in EdT1, 480 min, 32°C", "result": "<1", "unit": "%"}, {"measurement": "amount of fragrance ingredient retained on blotter (percentage of the initial amount)", "setting": "[2]; Table 6, fragrance TAK in EdT1 or C4, T0, set at 100% (normalisation)", "result": 100, "unit": "%"}, {"measurement": "amount of fragrance ingredient retained on blotter (percentage of the initial amount)", "setting": "[2]; Table 9, fragrance COM1 in C5, T0 + 15 min", "result": 11.32, "unit": "%"}, {"measurement": "amount of fragrance ingredient retained on blotter (percentage of the initial amount)", "setting": "[2]; Table 9, fragrance COM1 in C5, T0 + 480 min", "result": "<1", "unit": "%"}, {"measurement": "amount of fragrance ingredient retained on blotter (percentage of the initial amount)", "setting": "[2]; Table 9, fragrance COM1 in C5, T0 +1440 min", "result": "<1", "unit": "%"}, {"measurement": "amount of fragrance ingredient retained on blotter (percentage of the initial amount)", "setting": "[2]; Table 9, fragrance COM1 in C6, T0 + 15 min", "result": 6.6, "unit": "%"}, {"measurement": "amount of fragrance ingredient retained on blotter (percentage of the initial amount)", "setting": "[2]; Table 9, fragrance COM1 in C6, T0 + 480 min", "result": "<1", "unit": "%"}, {"measurement": "amount of fragrance ingredient retained on blotter (percentage of the initial amount)", "setting": "[2]; Table 9, fragrance COM1 in C6, T0 +1440 min", "result": "<1", "unit": "%"}, {"measurement": "amount of fragrance ingredient retained on blotter (percentage of the initial amount)", "setting": "[2]; Table 9, fragrance COM1 in EdT2, C5 or C6, T0, set at 100% (normalisation)", "result": 100, "unit": "%"}, {"measurement": "amount of fragrance ingredient retained on blotter (percentage of the initial amount)", "setting": "[2]; Table 9, fragrance COM1 in EdT2, T0 + 15 min", "result": 1.33, "unit": "%"}, {"measurement": "amount of fragrance ingredient retained on blotter (percentage of the initial amount)", "setting": "[2]; Table 9, fragrance COM1 in EdT2, T0 + 480 min", "result": "<1", "unit": "%"}, {"measurement": "amount of fragrance ingredient retained on blotter (percentage of the initial amount)", "setting": "[2]; Table 9, fragrance COM1 in EdT2, T0 +1440 min", "result": "<1", "unit": "%"}]}]}
